Experimental findings from patent US20230310428A1, “EGFR INHIBITOR AND PREPARATION METHOD AND USE THEREOF” (HONGYUN BIOTECH CO., LTD., priority 2020, published 2023) are described below.

pIC50: −log10 of the molar value.

What all share (assay): Growth inhibitory activity of compounds on BaF3 cell lines stably transfected with kinase (MTS, 48 h)
Holding throughout (format): cell-based

In test [1] the target is T1, various mutants of kinase EGFR (BaF3 cell lines stably transfected with kinase) (Homo sapiens, UniProt P00533, T790M/C797S, form not given).
T1 construct: other: BaF3 cells stably transfected with EGFR Δ19Del/T790M/C797S; MTS, 48; other: BaF3 cell line stably transfected with EGFR Δ19Del/T790M/C7
T1 sequence (P00533 with tags, fused parts or gaps DEL746-750/T790M/C797S, form open): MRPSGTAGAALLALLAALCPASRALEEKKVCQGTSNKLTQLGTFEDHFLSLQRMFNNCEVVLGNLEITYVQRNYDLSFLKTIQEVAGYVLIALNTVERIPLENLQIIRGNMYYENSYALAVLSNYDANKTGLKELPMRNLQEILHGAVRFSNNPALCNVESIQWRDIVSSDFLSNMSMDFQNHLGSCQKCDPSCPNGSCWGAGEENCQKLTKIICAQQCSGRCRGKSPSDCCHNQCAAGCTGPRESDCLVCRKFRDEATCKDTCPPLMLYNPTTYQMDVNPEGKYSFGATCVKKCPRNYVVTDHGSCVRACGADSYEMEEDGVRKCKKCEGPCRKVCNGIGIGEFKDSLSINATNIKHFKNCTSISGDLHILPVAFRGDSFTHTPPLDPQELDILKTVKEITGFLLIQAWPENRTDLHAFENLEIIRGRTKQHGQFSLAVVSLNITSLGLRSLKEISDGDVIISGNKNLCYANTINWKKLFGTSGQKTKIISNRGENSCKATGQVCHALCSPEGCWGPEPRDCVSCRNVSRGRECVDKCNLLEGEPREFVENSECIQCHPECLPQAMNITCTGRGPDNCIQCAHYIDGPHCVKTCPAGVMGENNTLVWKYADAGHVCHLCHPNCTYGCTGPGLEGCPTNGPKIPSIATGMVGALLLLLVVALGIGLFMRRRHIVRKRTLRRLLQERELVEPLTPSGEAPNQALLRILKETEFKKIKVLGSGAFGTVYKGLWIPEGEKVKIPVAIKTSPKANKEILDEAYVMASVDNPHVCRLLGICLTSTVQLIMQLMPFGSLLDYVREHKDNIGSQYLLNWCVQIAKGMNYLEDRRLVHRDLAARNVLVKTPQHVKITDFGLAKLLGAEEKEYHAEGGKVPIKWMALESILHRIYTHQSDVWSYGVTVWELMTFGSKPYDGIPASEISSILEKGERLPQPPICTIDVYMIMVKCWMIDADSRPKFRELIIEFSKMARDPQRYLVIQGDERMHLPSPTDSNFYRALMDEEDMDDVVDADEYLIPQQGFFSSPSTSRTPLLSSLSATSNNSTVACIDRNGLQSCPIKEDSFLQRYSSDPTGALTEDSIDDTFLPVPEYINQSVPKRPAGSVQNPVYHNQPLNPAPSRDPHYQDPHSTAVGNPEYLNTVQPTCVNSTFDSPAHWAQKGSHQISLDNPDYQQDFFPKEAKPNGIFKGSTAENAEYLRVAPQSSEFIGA
The settings on record: BaF3 cells stably transfected with EGFR Δ19Del/T790M/C797S, read-out: IC50, growth inhibition, Δ19Del/T790M/C797S. In outline:
(§1)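 OD at 490 nm after 1-4 h MTS/PES incubation gave growth inhibition relative to 0.1% DMSO negative and cell-free medium blank. Compounds: 8-point 1/3 dilution from 10 µM, 48 h, 37 °C. IC50 from inhibition curves; duplicates.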

Test [2] addresses T2, various mutants of kinase EGFR (BaF3 cell lines stably transfected with kinase) (Homo sapiens, UniProt P00533, L858R/T790M).
T2 construct: expressed in transfected cells; host or cells: BaF3
The conditions noted are these: BaF3 cells stably transfected with EGFR L858R/T790M, read-out: IC50, growth inhibition, L858R/T790M. In outline: as §1

In test [3] the target is T3, various mutants of kinase EGFR (BaF3 cell lines stably transfected with kinase) (Homo sapiens, UniProt P00533).
T3 construct: other: BaF3 cells stably transfected with EGFR Δ19Del; MTS, 48 h; other: BaF3 cell line stably transfected with EGFR Δ19Del
T3 sequence (P00533 with tags, fused parts or gaps DEL746-750): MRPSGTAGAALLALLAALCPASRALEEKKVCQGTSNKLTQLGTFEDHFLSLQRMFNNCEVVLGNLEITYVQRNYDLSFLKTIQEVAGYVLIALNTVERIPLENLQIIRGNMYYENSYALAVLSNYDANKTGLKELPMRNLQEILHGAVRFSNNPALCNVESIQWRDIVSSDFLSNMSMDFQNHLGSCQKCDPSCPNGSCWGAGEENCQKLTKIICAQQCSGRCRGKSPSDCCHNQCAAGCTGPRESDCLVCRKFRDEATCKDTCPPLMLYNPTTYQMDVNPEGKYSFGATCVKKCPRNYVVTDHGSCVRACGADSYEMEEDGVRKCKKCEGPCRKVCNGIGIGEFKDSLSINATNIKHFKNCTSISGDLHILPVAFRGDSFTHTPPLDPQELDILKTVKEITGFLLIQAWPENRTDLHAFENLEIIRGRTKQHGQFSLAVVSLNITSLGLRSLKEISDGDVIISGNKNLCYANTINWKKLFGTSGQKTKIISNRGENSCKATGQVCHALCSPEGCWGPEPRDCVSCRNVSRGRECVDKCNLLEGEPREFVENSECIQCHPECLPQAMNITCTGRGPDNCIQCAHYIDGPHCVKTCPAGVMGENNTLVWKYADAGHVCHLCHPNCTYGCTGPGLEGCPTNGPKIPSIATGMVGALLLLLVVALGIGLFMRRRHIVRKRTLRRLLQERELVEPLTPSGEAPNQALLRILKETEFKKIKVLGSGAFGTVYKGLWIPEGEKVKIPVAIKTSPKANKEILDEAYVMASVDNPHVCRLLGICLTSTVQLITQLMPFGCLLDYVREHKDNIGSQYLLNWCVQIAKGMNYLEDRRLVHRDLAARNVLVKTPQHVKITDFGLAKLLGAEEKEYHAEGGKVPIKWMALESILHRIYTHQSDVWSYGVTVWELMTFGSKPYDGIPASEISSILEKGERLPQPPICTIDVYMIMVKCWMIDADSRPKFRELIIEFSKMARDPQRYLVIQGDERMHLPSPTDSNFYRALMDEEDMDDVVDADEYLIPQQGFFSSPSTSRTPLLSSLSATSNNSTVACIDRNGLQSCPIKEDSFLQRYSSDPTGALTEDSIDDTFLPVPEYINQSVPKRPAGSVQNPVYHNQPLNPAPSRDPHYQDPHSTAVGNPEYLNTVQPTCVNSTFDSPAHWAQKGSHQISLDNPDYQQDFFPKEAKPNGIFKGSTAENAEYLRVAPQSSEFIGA
The conditions noted are these: BaF3 cells stably transfected with EGFR Δ19Del, read-out: IC50, growth inhibition, Δ19Del. The method in brief:
as §1

Test [4] addresses T4, various mutants of kinase EGFR (BaF3 cell lines stably transfected with kinase) (Homo sapiens, UniProt P00533, C797S/L858R/T790M).
T4 construct: expressed in transfected cells; host or cells: BaF3
The conditions noted are these: BaF3 cells stably transfected with EGFR L858R/T790M/C797S, read-out: IC50, growth inhibition, L858R/T790M/C797S. In outline: as §1

The target in test [5] is T5, various mutants of kinase EGFR (BaF3 cell lines stably transfected with kinase) (Homo sapiens, UniProt P00533, T790M, form not given).
T5 construct: other: BaF3 cells stably transfected with EGFR Δ19Del/T790M; MTS, 48 h; other: BaF3 cell line stably transfected with EGFR Δ19Del/T790M; MTS, 48
The settings on record: BaF3 cells stably transfected with EGFR Δ19Del/T790M, read-out: IC50, growth inhibition, Δ19Del/T790M. The method in brief: as §1

The target of test [6] is T6, various mutants of kinase EGFR (BaF3 cell lines stably transfected with kinase) (Homo sapiens, UniProt P00533, L858R).
T6 construct: expressed in transfected cells; host or cells: BaF3
T6 sequence (P00533 25-1210 L858R): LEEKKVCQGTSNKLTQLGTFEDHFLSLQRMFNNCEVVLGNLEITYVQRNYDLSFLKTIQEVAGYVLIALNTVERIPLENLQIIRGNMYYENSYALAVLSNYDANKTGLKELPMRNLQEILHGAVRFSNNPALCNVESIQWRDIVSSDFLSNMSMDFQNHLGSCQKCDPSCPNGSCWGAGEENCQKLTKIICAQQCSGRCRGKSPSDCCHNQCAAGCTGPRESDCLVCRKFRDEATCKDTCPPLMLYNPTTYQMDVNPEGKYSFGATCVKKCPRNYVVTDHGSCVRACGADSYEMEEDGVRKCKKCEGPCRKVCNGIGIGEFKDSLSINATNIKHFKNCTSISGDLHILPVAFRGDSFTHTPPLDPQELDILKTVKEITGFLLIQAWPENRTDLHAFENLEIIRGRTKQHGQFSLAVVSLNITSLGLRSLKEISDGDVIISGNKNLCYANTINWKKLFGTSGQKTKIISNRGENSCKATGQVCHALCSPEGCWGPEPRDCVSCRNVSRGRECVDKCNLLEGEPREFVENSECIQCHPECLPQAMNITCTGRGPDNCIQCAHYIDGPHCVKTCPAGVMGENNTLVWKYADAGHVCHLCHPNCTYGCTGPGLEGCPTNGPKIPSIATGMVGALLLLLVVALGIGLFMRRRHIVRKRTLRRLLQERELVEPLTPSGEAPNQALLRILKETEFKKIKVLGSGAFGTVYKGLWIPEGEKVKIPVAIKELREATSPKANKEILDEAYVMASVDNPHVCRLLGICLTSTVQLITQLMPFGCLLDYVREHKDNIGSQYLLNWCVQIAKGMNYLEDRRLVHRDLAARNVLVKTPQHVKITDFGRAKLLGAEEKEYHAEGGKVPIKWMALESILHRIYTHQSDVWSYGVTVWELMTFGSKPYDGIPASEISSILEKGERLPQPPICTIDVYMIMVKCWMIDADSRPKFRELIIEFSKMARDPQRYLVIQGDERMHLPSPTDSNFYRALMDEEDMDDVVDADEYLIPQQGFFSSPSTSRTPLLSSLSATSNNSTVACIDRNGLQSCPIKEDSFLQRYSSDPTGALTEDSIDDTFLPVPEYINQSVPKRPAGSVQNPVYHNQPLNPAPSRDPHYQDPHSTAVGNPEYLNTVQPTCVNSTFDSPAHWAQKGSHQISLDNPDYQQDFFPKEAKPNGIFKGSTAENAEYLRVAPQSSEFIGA
The settings on record: BaF3 cells stably transfected with EGFR L858R, read-out: IC50, growth inhibition, L858R. The method in brief:
as §1

T4 sequence (P00533 25-1210 T790M/C797S/L858R): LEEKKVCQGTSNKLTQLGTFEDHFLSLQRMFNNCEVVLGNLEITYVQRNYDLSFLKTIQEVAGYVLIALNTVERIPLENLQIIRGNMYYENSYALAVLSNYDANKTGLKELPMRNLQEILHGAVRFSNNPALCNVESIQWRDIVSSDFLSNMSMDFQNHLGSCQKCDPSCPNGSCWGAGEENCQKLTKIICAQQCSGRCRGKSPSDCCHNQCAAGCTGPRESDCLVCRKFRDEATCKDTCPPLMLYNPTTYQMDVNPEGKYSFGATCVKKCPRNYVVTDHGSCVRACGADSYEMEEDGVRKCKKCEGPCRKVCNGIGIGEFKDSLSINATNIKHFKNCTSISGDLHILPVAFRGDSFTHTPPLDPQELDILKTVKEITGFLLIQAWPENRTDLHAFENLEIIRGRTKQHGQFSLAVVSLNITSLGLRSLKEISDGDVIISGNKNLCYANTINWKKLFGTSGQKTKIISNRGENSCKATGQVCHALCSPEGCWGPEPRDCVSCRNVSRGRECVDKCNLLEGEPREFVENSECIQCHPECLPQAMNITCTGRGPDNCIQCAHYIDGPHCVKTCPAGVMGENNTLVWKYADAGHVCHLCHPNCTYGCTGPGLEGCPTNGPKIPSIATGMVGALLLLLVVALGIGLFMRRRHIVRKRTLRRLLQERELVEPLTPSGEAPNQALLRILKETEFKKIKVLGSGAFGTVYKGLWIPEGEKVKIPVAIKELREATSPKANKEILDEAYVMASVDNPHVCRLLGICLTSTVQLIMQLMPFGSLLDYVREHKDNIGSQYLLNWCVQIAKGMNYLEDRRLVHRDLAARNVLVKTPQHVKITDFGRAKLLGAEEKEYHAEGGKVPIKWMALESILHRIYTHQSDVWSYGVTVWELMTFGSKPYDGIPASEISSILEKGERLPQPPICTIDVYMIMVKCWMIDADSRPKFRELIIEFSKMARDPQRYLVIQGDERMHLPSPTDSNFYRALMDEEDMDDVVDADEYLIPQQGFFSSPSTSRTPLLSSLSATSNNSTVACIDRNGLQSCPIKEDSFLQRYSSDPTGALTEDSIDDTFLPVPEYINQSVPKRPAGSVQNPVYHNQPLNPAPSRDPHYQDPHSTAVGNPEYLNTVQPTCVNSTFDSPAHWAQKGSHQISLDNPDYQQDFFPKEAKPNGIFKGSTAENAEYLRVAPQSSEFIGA

On to `COc1cc(N2CCC(N(C)C)C2)c(C)cc1Nc1ncc([N+](=O)[O-])c(Nc2ccc3nccnc3c2N(C)S(C)(=O)=O)n1` (stereo not drawn) [Compound I-195], for which the pIC50 in test [1] was at least 7.30; in test [2] it was 6.30 to 7.30; in test [3], 6.30 to 7.30; in test [4], 6.30 to 7.30; in test [5], 6.30 to 7.30; in test [6], 6.30 to 7.30.
Turning to `CCc1cc(Nc2ncc([N+](=O)[O-])c(Nc3ccc4nccnc4c3N(C)S(C)(=O)=O)n2)c(OC)cc1N1CCC(N(C)C)C1` (stereo not drawn) [Compound I-196], the pIC50 in test [1] was at least 7.30; in test [2], 6.30 to 7.30; in test [3], 6.30 to 7.30; in test [4], 6.30 to 7.30; in test [5] it was 6.30 to 7.30; in test [6], 6.30 to 7.30.
In the case of `COc1nc(N2CCC(N3CCN(C)CC3)CC2)ccc1Nc1ncc(C(F)(F)F)c(Nc2ccc3nccnc3c2N(C)S(C)(=O)=O)n1` [Compound I-197], the pIC50 in test [1] is at least 7.30; in test [2], 6.30 to 7.30; in test [3], 6.30 to 7.30; in test [4], 6.30 to 7.30; in test [5] it was 6.30 to 7.30; in test [6] it was 6.30 to 7.30.
Take `CCc1cc(Nc2ncc(C(F)(F)F)c(Nc3ccc4nccnc4c3N(C)S(C)(=O)=O)n2)c(OC)nc1N1CCC(N2CCN(C)CC2)CC1` [Compound I-199]: the pIC50 in test [1] was at least 7.30; in test [2] it was at least 7.30; in test [3], 6.30 to 7.30; in test [4], at least 7.30; in test [5] it was at least 7.30; in test [6], at least 7.30.
In the case of `CN1CCN(C2CCN(c3ccc(Nc4ncc(C(F)(F)F)c(Nc5ccc6nccnc6c5N(C)S(C)(=O)=O)n4)c(OC(F)(F)F)c3)CC2)CC1` [Compound I-200], the pIC50 in test [1], in test [2], in test [3], in test [4], in test [5] and in test [6] was 6.30 to 7.30 throughout.
`CCc1cc(Nc2ncc(C(F)(F)F)c(Nc3ccc4nccnc4c3N(C)S(C)(=O)=O)n2)c(OC(F)(F)F)cc1N1CCC(N2CCN(C)CC2)CC1` [Compound I-201]: the pIC50 is at least 7.30 in test [1]; 6.30 to 7.30 in test [2]; 6.30 to 7.30 in test [3]; 6.30 to 7.30 in test [4]; 6.30 to 7.30 in test [5]; 6.30 to 7.30 in test [6].
As for `C=Cc1cc(Nc2ncc(C(F)(F)F)c(Nc3ccc4nccnc4c3N(C)S(C)(=O)=O)n2)c(OC(F)(F)F)cc1N1CCC(N2CCN(C)CC2)CC1` [Compound I-202], the pIC50 in test [1] was at least 7.30; in test [2] it was at least 7.30; in test [3], 6.30 to 7.30; in test [4] it was 6.30 to 7.30; in test [5], at least 7.30; in test [6], 6.30 to 7.30.
For `COc1cc(N2CCC(N3CCN(C)CC3)CC2)c(CC2CC2)cc1Nc1ncc(C(F)(F)F)c(Nc2ccc3nccnc3c2N(C)S(C)(=O)=O)n1` [Compound I-203], the pIC50 was at least 7.30 in test [1]; at least 7.30 in test [2]; 6.30 to 7.30 in test [3]; 6.30 to 7.30 in test [4]; at least 7.30 in test [5]; 6.30 to 7.30 in test [6].
For `COc1cc(N2CCC(N3CCN(C)CC3)CC2)c(Cc2ccccc2)cc1Nc1ncc(C(F)(F)F)c(Nc2ccc3nccnc3c2N(C)S(C)(=O)=O)n1` [Compound I-204], the pIC50 in test [1], in test [2], in test [3], in test [4], in test [5] and in test [6] was 5.60 to 6.30 throughout.
Take `COc1cc(N2CCC(N(C)C)CC2)c(C)cc1Nc1ncc(C(F)(F)F)c(Nc2ccc3nccnc3c2N(C)S(C)(=O)=O)n1` [Compound I-205]: the pIC50 in test [1], in test [2], in test [3], in test [4], in test [5] and in test [6] was at least 7.30 throughout.
